Entries after “also recorded” stand apart in the source; their conditions may differ.
Key:
mu receptor [1] = assay: Mu opioid receptor agonist activity; settings: in words
delta receptor [2] = target: delta receptor (Mus musculus, UniProt P32300); assay: Delta opioid receptor agonist activity; settings: in words
[3] = Analgesia (test not described); type: in vivo; settings: in words
[4] = Side effects on peripheral administration to rats and mice
mouse vas deferens [5] = target: T1, mouse vas deferens (Mus musculus, UniProt P32300); assay: cell-based; type: cell-based
T1 construct: Vasa deferentia were removed from mice; from tissue; host or cells: mouse vas deferens
T1 sequence (P32300 whole entry): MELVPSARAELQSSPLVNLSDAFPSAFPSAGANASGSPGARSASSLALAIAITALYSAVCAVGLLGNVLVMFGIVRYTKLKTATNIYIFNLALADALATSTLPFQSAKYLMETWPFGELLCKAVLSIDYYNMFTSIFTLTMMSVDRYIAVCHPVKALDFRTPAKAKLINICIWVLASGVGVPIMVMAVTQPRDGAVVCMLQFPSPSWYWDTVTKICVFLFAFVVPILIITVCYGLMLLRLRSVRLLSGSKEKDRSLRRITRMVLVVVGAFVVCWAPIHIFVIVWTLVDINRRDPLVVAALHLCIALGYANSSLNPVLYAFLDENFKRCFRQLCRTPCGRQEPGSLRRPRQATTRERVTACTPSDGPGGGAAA

guinea pig ileum = assay: Inhibition of electrically stimulated contraction of guinea pig ileum; type: cell-based; settings: Cavia porcellus, mean of (n) experiments, read-out: Guinea Pig lleum ED50
Delta Receptor [6] = target: T2, Delta Receptor (Rattus norvegicus, UniProt P33533); assay: Delta receptor binding, rat brain membranes; design: species or system rat (Sprague-Dawley); settings: 125I-[D-Ala2,D-Leu5]enkephalin 0.24 nM with mu-agonist morphiceptin analog, 24° C., 60 min, mean of (n) experiments, read-out: Delta Receptor IC50
T2 construct: Rat (Sprague-Dawley) brain membranes were prepared; from tissue; host or cells: rat (Sprague-Dawley) brain membranes
T2 sequence (P33533 whole entry): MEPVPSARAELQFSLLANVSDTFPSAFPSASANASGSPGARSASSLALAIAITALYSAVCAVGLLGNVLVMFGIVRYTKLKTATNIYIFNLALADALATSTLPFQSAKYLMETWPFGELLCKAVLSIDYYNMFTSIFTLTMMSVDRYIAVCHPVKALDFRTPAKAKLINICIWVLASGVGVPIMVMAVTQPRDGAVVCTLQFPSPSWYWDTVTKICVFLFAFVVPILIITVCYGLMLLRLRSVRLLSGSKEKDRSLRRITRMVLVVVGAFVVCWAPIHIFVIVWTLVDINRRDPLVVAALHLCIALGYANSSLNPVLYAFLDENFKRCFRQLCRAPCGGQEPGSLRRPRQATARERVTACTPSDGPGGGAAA

[7] = test system: mu and delta opioid receptors; assay: Rodent tests of analgesia, muscle rigidity, respiratory depression and proconvulsant activity
Mu Receptor [8] = target: T3, Mu Receptor (Rattus norvegicus, UniProt P33535); assay: Mu receptor binding, rat brain membranes; design: species or system rat (Sprague-Dawley); settings: 125I-[D-Ala2,N-MePhe4,Met(O)ol5]enkephalin 0.1 nM, 24° C., 60 min, mean of (n) experiments, read-out: Mu Receptor IC50
T3 construct: Rat (Sprague-Dawley) brain membranes were prepared; from tissue; host or cells: rat (Sprague-Dawley) brain membranes
T3 sequence (P33535 whole entry): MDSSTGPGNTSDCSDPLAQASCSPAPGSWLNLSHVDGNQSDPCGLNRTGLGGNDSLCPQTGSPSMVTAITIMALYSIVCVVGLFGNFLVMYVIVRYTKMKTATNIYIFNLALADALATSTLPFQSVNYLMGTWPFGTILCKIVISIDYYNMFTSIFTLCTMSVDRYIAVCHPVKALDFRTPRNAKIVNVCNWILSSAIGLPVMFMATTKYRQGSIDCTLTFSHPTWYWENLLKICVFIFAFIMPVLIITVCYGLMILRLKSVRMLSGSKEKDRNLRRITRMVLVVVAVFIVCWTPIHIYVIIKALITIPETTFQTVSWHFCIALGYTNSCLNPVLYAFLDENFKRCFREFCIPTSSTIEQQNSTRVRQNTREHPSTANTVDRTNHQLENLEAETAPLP

mouse vas deferens [9] = target: T1, mouse vas deferens; assay: cell-based
delta-opioid receptor = assay: Tail flick test, injection into brain (icv); type: in vivo; settings: mice

Chain of delta receptor (P32300 whole entry): as the sequence (P32300 whole entry) above

## C=CCN1C[C@H](C)N([C@@H](c2ccccc2)c2cccc(O)c2)C[C@H]1C (relative stereo) [Compound I]
Mu receptor [1]
  mu receptor agonist activity: significant agonist activity
Delta receptor [2]
  delta receptor agonist activity: delta-receptor opiate properties
[3]
  analgesic activity: strong analgesics

## C=CCN1C[C@H](C)N([C@H](c2cccc(O)c2)c2cc(Br)c(C(=O)N(CC)CC)s2)C[C@H]1C (relative stereo) [Compound B, 5-((αR*)-α-((2S*,5R*)-4-allyl-2,5-dimethyl-1-piperazinyl)-3-hydroxybenzyl)-3-bromo-N,N-diethyl-2-thiophenecarboxamide]
Delta receptor [2]
  delta receptor agonist activity: predominantly delta receptor agonist; also recorded: delta-opioid agonist
Opioid receptor
  opioid receptor ligand selectivity: highly selective opioid receptor ligand species
[4]
  side effects when administered peripherally: does not produce evident side effects

## C=CCN1C[C@H](C)N([C@@H](c2cccc(O)c2)c2cccc(C(=O)N(CC)CC)c2)C[C@H]1C [Example 85, (+)-3-((αR)-α-((2S,5R)-4-Allyl-2,5-dimethyl-1-piperazinyl)-3-hydroxybenzyl)-N,N-diethylbenzamide]
Mouse vas deferens [5]
  IC50: 7.3 nM
Guinea pig ileum
  IC50: 18 nM
Delta Receptor [6]
  IC50: 1.9 nM
Mu receptor [1]; listed as Compound C
  mu receptor agonist activity: mixed mu/delta opioid agonist; also recorded: agonism at both mu and delta opioid receptors
Delta receptor [2]; listed as Compound C
  delta receptor agonist activity: mixed mu/delta opioid agonist; also recorded: agonism at both mu and delta opioid receptors
[7]
  analgesic potency compared to morphine: analgesic potency comparable to mu-analgesic morphine
  muscle rigidity and respiratory depression compared to morphine: much reduced extent of muscle rigidity and respiratory depression
  proconvulsant activity: free of proconvulsant activity

## CCN(CC)C(=O)c1ccc([C@H](c2cccc(O)c2)N2C[C@@H](C)N(C)C[C@H]2C)cc1 [Example 13, (+)-N,N-diethyl-4-(3-hydroxy-(αR)-α-((2R,5R) -2,4,5-trimethyl-1-piperazinyl)benzyl)benzamide]
Guinea pig ileum
  IC50: > 10000 nM
Mu Receptor [8]
  IC50: 2400 nM
Mouse vas deferens [9]
  Kb: 100 nM

## CCN(CC)C(=O)c1ccc(C(c2cccc(O)c2)N2C[C@@H](C)N(C)[C@@H](C)C2)cc1 (relative stereo) [Compound E]
Mouse vas deferens [5]; in words
  agonist activity in the mouse vas deferens: inactive as an agonist
  antagonist activity in the mouse vas deferens: may be a weak antagonist
delta-opioid receptor
  analgesic activity in the tail flick test: provide analgesic activity
  reversal of analgesia by injection of naloxone or delta-specific antagonists (ICI 174,864 or naltrindole): reversible

## C=CCN1C[C@H](C)N([C@@H](c2ccsc2)c2cccc(O)c2)C[C@H]1C (relative stereo) [Compound K]
Mu receptor [1]
  mu receptor agonist activity: significant agonist activity
Delta receptor [2]
  delta receptor agonist activity: delta-receptor opiate properties
[3]
  analgesic activity: strong analgesics

Source: patent US5658908A (priority 1992, dated 1997)
